Legend:
HepG2 cells [1] = experiment: Cell viability assay (MTS) in HepG2 cells; format: cell-based; conditions: Homo sapiens, MTS, mean, n = 5, 72 h for 5r (Figure 2)
Protocol: (§1) HepG2, Huh7, H1299, HT29, AGS and A549 cells were purchased from the Korean Cell Line Bank (Seoul, Korea) and HaCaT cells were obtained from Prof. Sohee Kwon (Yonsei University, Korea). Liver cancer cells (HepG2), human keratinocyte cells (HaCaT), and lung cancer cells (A549) were grown in DMEM high-glucose medium, liver cancer cells (Huh7) and non-small cell lung cancer cells (H1299) were grown in RPMI 1640, and gastric cancer cells (AGS) were grown in Coon’s modified F12 medium. All media were supplemented with 10% FBS, 100 Units/mL penicillin, and 100 μg/mL streptomycin. All cells were incubated at 37 °C, 5% CO2 and 95% humidity.
(§2) Cell viability assay was conducted using Cell Titer 96® AQueous One Solution Cell proliferation Assay kit (Promega, Madison, WI, USA). Five cancer cells and HaCaT cells were plated in 96-well microplates with growth medium for 24 h. When cell confluency reached ~30%, cells were treated with DMSO (vehicle) and test compounds. The medium and test compounds were replaced every 24 h. To measure cell viability, the cells were incubated with MTS solution for 1 h. The absorbance was measured by using Infinite M200 microplate reader (Tecan, Männedorf, Switzerland) at 490 nm.
(§3) Figure 2 Effect of 5r on cell viability in HepG2, Huh7, AGS, H1299, A549, HaCaT, NIH3T3, and HEK293T cells. (A–H) HepG2, Huh7, AGS, H1299, A549, HaCaT, NIH3T3, and HEK293T cells were cultured with 5r at the indicated concentrations for 72 h, and medium was replaced every 24 h with freshly added 5r. Cell viability was measured by MTS analysis (mean ± S.D., n = 5). * p < 0.05, ** p < 0.01, *** p < 0.001.

H1299 cells = experiment: Cell viability assay (MTS) in H1299 cells; format: cell-based; conditions: 72 h, MTS, Figure 2D
Protocol: as §1, §2, §3

A549 cells = experiment: Cell viability assay (MTS) in A549 cells; format: cell-based; conditions: 72 h, MTS, Figure 2E
Protocol: as §1, §2, §3

HaCaT cells = experiment: Cell viability assay (MTS) in HaCaT cells; format: cell-based, human
Protocol: as §1, §2, §3

HepG2 cells [2] = experiment: In vitro wound-healing assay in HepG2 cells; format: cell-based; conditions: Figure 3
Protocol: (§4) The suppressive effect of 5r on cell migration was assessed through in vitro wound-healing assay. HepG2 and Huh7 cells were grown to approximately 100% confluence to form a monolayer in a 96-well microplate. Wounds were formed through 96-well wound maker (Essen BioScience, Ann Arbor, MI, USA). Then, growth medium was removed and washed out twice with phosphate-buffered saline (PBS) and incubated with 200 μL of DMEM and RPMI 1640 medium containing 5r or vehicle (DMSO). Images of the wound area were taken by using IncuCyte ZOOM (Essen BioScience, Ann Arbor MI, USA), and the percentage of wound closure was measured by using IncuCyte software.
(§5) Figure 3 Inhibitory effect of 5r on cell migration in HepG2 and Huh7 cells. (A,B) In vitro wound-healing assay was performed in HepG2 and Huh7 cells (mean ± S.D., n = 3). HepG2 and Huh7 cells were treated with the indicated concentrations of 5r, and time-lapse images were acquired every 2 h after wound infliction. (C,D) Representative images were taken at 0, 48, or 72 h following administration of 5r at the indicated concentrations.

Huh7 cells = experiment: In vitro wound-healing assay in Huh7 cells; format: cell-based; conditions: Figure 3
Protocol: as §4, §5

caspase-3 [3] = experiment: Caspase-3 activity assay in HepG2 cells; format: cell-based; conditions: 3 µM 5r for 24 h, Figure 4A
Protocol: (§6) HepG2 and Huh7 cells were plated in 96-black-well plate to about 40% confluence, and then 5r was treated for 24 h. To assess activity of caspase-3, the growth medium was changed with 100 μL of PBS containing 1 μM caspase-3 substrate, NucView 488, and incubated at room temperature. After 20 min, 1 μM Hoechst 33342 was treated to stain the cells. Activity of caspase-3 was suppressed by Ac-DEVD-CHO, a selective caspase-3 inhibitor. FLUOstar Omega microplate reader (BMG Labtech, Ortenberg, Germany) was used to assess the fluorescence of NucView 488 and Hoechst, and Lionheart FX Automated Microscope (BioTek, Winooski, VT, USA) was used to acquire the fluorescence microscopy images.
(§7) Figure 4 Effect of 5r on activity of caspase-3 and cleavage of PARP in HepG2 and Huh7 cells. (A,B) HepG2 and Huh7 cells were incubated with 3 µM 5r for 24 h and then incubated with 1 µM caspase-3 substrate (green) and 1 µM Hoechst 33,342 (blue) for 20 min before image acquisition. (C,D) Cells were cultured with 5r at the indicated concentrations for 24 h and then 1 μM caspase-3 substrate was treated for 20 min. Caspase-3 was inhibited by 20 μM Ac-DEVD-CHO (mean ± S.D., n = 3). (E,F) Cells were cultured with 5r at the indicated concentrations for 24 h, and expression level of PARP, cleaved-PARP and β-actin were measured by Western blot analysis. […]

caspase-3 [4] = experiment: Caspase-3 activity assay in Huh7 cells; format: cell-based; conditions: 3 µM 5r for 24 h, Figure 4B
Protocol: as §6, §7

cleaved PARP = experiment: Western blot analysis of cleaved PARP in Huh7 cells; format: cell-based; conditions: 24 h, Figure 4F,H
Protocol: For Western blot analysis, HepG2 and Huh7 cells were lysed with RIPA buffer (50 mM Tris-HCl, PH 7.4, 1% Nonidet P-40, 0.25% sodium deoxycholate, 150 mM NaCl, 1 mM EDTA, 1 mM Na3VO4, and protease inhibitor). Lysed samples were centrifuged at 13,000 RPM for 20 min at 4 °C to remove the cell debris, and equal amounts (60 μg protein/lane) of supernatant protein were divided by 4–12% Tris Glycine Precast Gel (KOMA BIOTECH, Seoul, Korea). Then, PVDF membranes (Millipore, Billerica, MA, USA) were used to transfer the separated proteins. Membrane blocking was performed by Tris-buffered saline with 0.1% Tween 20 (TBST) containing 5% bovine serum albumin (BSA) at room temperature for 50 min. The membranes were incubated with primary antibodies overnight at 4 °C with the indicated primary antibodies: anti-cleaved PARP (BD Biosciences) and anti-β-actin (Santa Cruz Biotechnology, Dallas, TX, USA). […] After 1 h, membranes were detected by using ECL Plus Western blotting detection system (GE Healthcare, Piscataway, NJ, USA).
Figure 4 Effect of 5r on activity of caspase-3 and cleavage of PARP in HepG2 and Huh7 cells. […] (E,F) Cells were cultured with 5r at the indicated concentrations for 24 h, and expression level of PARP, cleaved-PARP and β-actin were measured by Western blot analysis. […]

## N#Cc1c2c3cccn3c(-c3ccccc3O)nc2n2ccccc12 [Compound 5r, 5-(2-Hydroxyphenyl)pyrrolo[1′,2′:1,6]pyrimido[5,4-b]indolizine-12-carbonitrile]
HepG2 cells [1]
  IC50: 0.22 µM
H1299 cells
  Effect on cell viability in H1299 cells: weak effect
A549 cells
  Effect on cell viability in A549 cells: weak effect
HaCaT cells; 72 h, Figure 2F
  Effect on cell viability in non-cancerous HaCaT cells: weakly decreased cell viability
HaCaT cells; Homo sapiens, mean, n = 5
  IC50: 6.91 µM
HepG2 cells [2]
  Effect on cell migration (wound closure) in HepG2 cells: significantly inhibited cell migration in a dose-dependent manner
Huh7 cells
  Effect on cell migration (wound closure) in Huh7 cells: significantly inhibited cell migration in a dose-dependent manner
caspase-3 [3]
  Caspase-3 activity in HepG2 cells: potently increased caspase-3 activity
caspase-3 [4]
  Caspase-3 activity in Huh7 cells: potently increased caspase-3 activity
Cleaved PARP
  Expression level of cleaved PARP in Huh7 cells: increased the expression level of cleaved PARP in a dose-dependent manner

Reference: publication PMC9694334, “Synthesis and Biological Evaluation of a Fused Structure of Indolizine and Pyrrolo[1,2-c]pyrimidine: Identification of Its Potent Anticancer Activity against Liver Cancer Cells” (Pharmaceuticals, 2022)
